Patent publication US20230085307A1, “PYRIDAZINONE COMPOUND AND HERBICIDE” (NISSAN CHEMICAL CORPORATION, priority 2019, published 2023)

Legend:
[1] = test system: oval-leafed pondweed; experiment: Test Example 2: herbicidal activity, application during weed generation under submerged conditions (Table 17, symbol C); format: in vivo, oval-leafed pondweed (Monochoria vaginalis); details: AAH 320 g/ha; application during weed generation, submerged conditions
How it was run: (§1)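 In this pot test, flooded alluvial soil (water depth 4 cm) holds all three species sown as a mixture. Once seedlings have one to two leaves, the compound's emulsion, thinned with water to the intended dose, is poured on the water; grading follows after three weeks on the earlier criteria.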

[2] = test system: persian speedwell; experiment: Test Example 5: herbicidal effect by foliage application, plastic box (Table 20, symbol R); format: in vivo, Persian speedwell (Veronica persica); details: foliage application, 320 g/ha; for effect on persian speedwell (R): 3 weeks after application
How it was run: (§2)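 Post-emergence foliar test in sterilized diluvial soil. Compound applied as water-diluted emulsion at a predetermined rate to 14-day-old plants; evaluation at three weeks.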

[3] = test system: Italian ryegrass; experiment: Test Example 4: herbicidal effect by soil treatment (Table 19, symbol K); format: in vivo, Italian ryegrass (Lolium multiflorum)
How it was run: (§3)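 Emulsion of test compound, water-diluted to predetermined amount, sprayed on soil after sowing (seed depth ~1.5 cm, sterilized diluvial soil). Greenhouse, 25–30° C. Effect graded at three weeks post-spray.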

[4] = test system: windgrass; experiment: Test Example 5: herbicidal effect by foliage application, plastic box (Table 20, symbol L); format: in vivo, windgrass (Apera spica-venti); details: foliage application, 320 g/ha; for effect on windgrass (L): 3 weeks after application
How it was run: as §2

[5] = test system: southern crabgrass; experiment: Test Example 4: herbicidal effect by soil treatment (Table 19, symbol F); format: in vivo, southern crabgrass (Digitaria ciliaris)
How it was run: as §3

[6] = test system: wild oat; experiment: Test Example 5: herbicidal effect by foliage application, plastic box (Table 20, symbol I); format: in vivo, wild oat (Avena fatua); details: foliage application, 320 g/ha; for effect on wild oat (I): 3 weeks after application
How it was run: as §2

[7] = test system: southern crabgrass; experiment: Test Example 5: herbicidal effect by foliage application, plastic box (Table 20, symbol F); format: in vivo, southern crabgrass (Digitaria ciliaris); details: foliage application, 320 g/ha; for effect on southern crabgrass (F): 3 weeks after application
How it was run: as §2

[8] = test system: chickweed; experiment: Test Example 5: herbicidal effect by foliage application, plastic box (Table 20, symbol P); format: in vivo, common chickweed (Stellaria media); details: foliage application, 320 g/ha, three weeks after application
How it was run: as §2

[9] = test system: Japanese bulrush; experiment: Test Example 2: herbicidal activity, application during weed generation under submerged conditions (Table 17, symbol B); format: in vivo, Japanese bulrush (Schoenoplectus juncoides); details: AAH 320 g/ha; application during weed generation, submerged conditions
How it was run: as §1

[10] = test system: green foxtail; experiment: Test Example 5: herbicidal effect by foliage application, plastic box (Table 20, symbol G); format: in vivo, green foxtail (Setaria viridis); details: foliage application, 320 g/ha; for effect on green foxtail (G): 3 weeks after application
How it was run: as §2

[11] = test system: rice flat sedge; experiment: Test Example 3: herbicidal effect by foliage application, Wagner pot (Table 18, symbol E); format: in vivo, rice flat sedge (Cyperus iria); details: 320 g/ha
How it was run: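 Plants were sown in alluvial soil held under 0.1–0.5 cm standing water and grown 14 days in a greenhouse at 25–30 °C. An emulsifiable formulation, water-diluted to the set dose, was then sprayed onto the foliage, and effects were scored three weeks later using previously defined criteria.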

[12] = test system: late watergrass; experiment: Test Example 1: herbicidal activity, application before weed generation under submerged conditions (Table 16, symbol A); format: in vivo, late watergrass (Echinochloa oryzicola); details: 320 g/ha applied herbicide
How it was run: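 Alluvial soil was flooded to 4 cm depth, weed seeds were sown mixed and 2.5-leaf rice seedlings were transplanted. On sowing day, the compound's emulsion, diluted in water to a set dose, was applied to the water surface. Plants grew at 25–30 °C and were scored 0–5 after three weeks.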

[13] = test system: redroot pigweed; experiment: Test Example 4: herbicidal effect by soil treatment (Table 19, symbol N); format: in vivo, redroot pigweed (Amaranthus retroflexus)
How it was run: as §3

[14] = test system: blackgrass; experiment: Test Example 4: herbicidal effect by soil treatment (Table 19, symbol J); format: in vivo, blackgrass (Alopecurus myosuroides)
How it was run: as §3

[15] = test system: chickweed; experiment: Test Example 4: herbicidal effect by soil treatment (Table 19, symbol P); format: in vivo, common chickweed (Stellaria media); details: 320 g/ha
How it was run: as §3

[16] = test system: green foxtail; experiment: Test Example 4: herbicidal effect by soil treatment (Table 19, symbol G); format: in vivo, green foxtail (Setaria viridis); details: 320 g/ha
How it was run: as §3

[17] = amount of applied herbicide 320 g/ha

SMILES | herbicidal effect rating, C: oval-leafed pondweed [1] | herbicidal effect rating, B: Japanese bulrush [9] | herbicidal effect on E (rice flat sedge), rating 0-5 [11] | Herbicidal effect on A: late watergrass (grade 0-5) [12] | effect on persian speedwell (R) [2] | herbicidal effect rating, K: Italian ryegrass ([3]; 320 g/ha) | effect on windgrass (L) [4] | herbicidal effect rating, F: southern crabgrass ([5]; 320 g/ha) | effect on wild oat (I) [6] | effect on southern crabgrass (F) [7] | herbicidal effect rating, P: chickweed [15] | herbicidal effect rating, G: green foxtail [16] | effect on green foxtail (G) [10] | herbicidal effect rating, N: redroot pigweed ([13]; 320 g/ha) | herbicidal effect rating, J: blackgrass ([14]; 320 g/ha) | further results
CCCCOc1ccc(-c2sc3ccccc3c2-c2c(OC(=O)CCC)c(C)nn(C)c2=O)cc1 [1-025] | 3 (Herbicidal rate of 40% or more and less than 70%) | 3 (Herbicidal rate of 40% or more and less than 70%) | 5 (Herbicidal rate of 90% or more (almost completely withered)) | 3 (Herbicidal rate of 40% or more and less than 70%) |  |  |  |  |  |  |  |  |  |  |  | herbicidal effect grade, R: persian speedwell ([2]; three weeks after application): 5 (Herbicidal rate of 90% or more (almost completely withered)); herbicidal effect rating, K: Italian ryegrass [3, 17]: 0 (Herbicidal rate of 5% or less (almost no effect)); herbicidal effect grade, L: windgrass ([4]; three weeks after application): 0 (Herbicidal rate of 5% or less (almost no effect)); herbicidal effect rating, F: southern crabgrass [5, 17]: 0 (Herbicidal rate of 5% or less (almost no effect)); herbicidal effect grade, I: wild oat ([6]; three weeks after application): 0 (Herbicidal rate of 5% or less (almost no effect)); herbicidal effect grade, F: southern crabgrass ([7]; three weeks after application): 3 (Herbicidal rate of 40% or more and less than 70%); herbicidal effect grade, P: chickweed [8]: 5 (Herbicidal rate of 90% or more (almost completely withered)); herbicidal effect grade, G: green foxtail ([10]; three weeks after application): 3 (Herbicidal rate of 40% or more and less than 70%); herbicidal effect rating, N: redroot pigweed [13, 17]: 5 (Herbicidal rate of 90% or more (almost completely withered)); herbicidal effect rating, J: blackgrass [14, 17]: 0 (Herbicidal rate of 5% or less (almost no effect))
CCCC(=O)Oc1c(C)nn(C)c(=O)c1-c1c(-c2ccc(OCC)cc2)sc2ccc(F)cc12 [2-031] | 3 (Herbicidal rate of 40% or more and less than 70%) | 3 (Herbicidal rate of 40% or more and less than 70%) | 4 (Herbicidal rate of 70% or more and less than 90%) | 3 (Herbicidal rate of 40% or more and less than 70%) | 5 (Herbicidal rate of 90% or more (almost completely withered)) | 0 (Herbicidal rate of 5% or less (almost no effect)) | 0 (Herbicidal rate of 5% or less (almost no effect)) | 1 (Herbicidal rate of 5% or more and less than 20%) | 0 (Herbicidal rate of 5% or less (almost no effect)) | 0 (Herbicidal rate of 5% or less (almost no effect)) | 1 (Herbicidal rate of 5% or more and less than 20%) | 2 (Herbicidal rate of 20% or more and less than 40%) | 2 (Herbicidal rate of 20% or more and less than 40%) | 4 (Herbicidal rate of 70% or more and less than 90%) | 0 (Herbicidal rate of 5% or less (almost no effect)) | 
COCc1ccc(-c2sc3ccc(F)cc3c2-c2c(O)c(C)nn(C)c2=O)cc1 [2-022] | 4 (Herbicidal rate of 70% or more and less than 90%) | 2 (Herbicidal rate of 20% or more and less than 40%) | 4 (Herbicidal rate of 70% or more and less than 90%) | 2 (Herbicidal rate of 20% or more and less than 40%) | 5 (Herbicidal rate of 90% or more (almost completely withered)) | 5 (Herbicidal rate of 90% or more (almost completely withered)) | 4 (Herbicidal rate of 70% or more and less than 90%) | 3 (Herbicidal rate of 40% or more and less than 70%) | 3 (Herbicidal rate of 40% or more and less than 70%) | 5 (Herbicidal rate of 90% or more (almost completely withered)) | 3 (Herbicidal rate of 40% or more and less than 70%) | 5 (Herbicidal rate of 90% or more (almost completely withered)) | 5 (Herbicidal rate of 90% or more (almost completely withered)) | 5 (Herbicidal rate of 90% or more (almost completely withered)) | 4 (Herbicidal rate of 70% or more and less than 90%) | 
Cc1nn(C)c(=O)c(-c2c(-c3ccc(OC4CCCC4)cc3)sc3ccc(F)cc23)c1O [2-039] | 2 (Herbicidal rate of 20% or more and less than 40%) | 0 (Herbicidal rate of 5% or less (almost no effect)) | 3 (Herbicidal rate of 40% or more and less than 70%) | 3 (Herbicidal rate of 40% or more and less than 70%) | 5 (Herbicidal rate of 90% or more (almost completely withered)) | 0 (Herbicidal rate of 5% or less (almost no effect)) | 5 (Herbicidal rate of 90% or more (almost completely withered)) | 0 (Herbicidal rate of 5% or less (almost no effect)) | 4 (Herbicidal rate of 70% or more and less than 90%) | 4 (Herbicidal rate of 70% or more and less than 90%) | 3 (Herbicidal rate of 40% or more and less than 70%) | 0 (Herbicidal rate of 5% or less (almost no effect)) | 5 (Herbicidal rate of 90% or more (almost completely withered)) | 3 (Herbicidal rate of 40% or more and less than 70%) | 0 (Herbicidal rate of 5% or less (almost no effect)) | 
CCCCOc1ccc(-c2sc3ccc(F)cc3c2-c2c(OC(=O)CCC)c(C)nn(C)c2=O)cc1 [2-037] | 3 (Herbicidal rate of 40% or more and less than 70%) | 1 (Herbicidal rate of 5% or more and less than 20%) | 4 (Herbicidal rate of 70% or more and less than 90%) | 3 (Herbicidal rate of 40% or more and less than 70%) | 5 (Herbicidal rate of 90% or more (almost completely withered)) | 0 (Herbicidal rate of 5% or less (almost no effect)) | 0 (Herbicidal rate of 5% or less (almost no effect)) | 2 (Herbicidal rate of 20% or more and less than 40%) | 0 (Herbicidal rate of 5% or less (almost no effect)) | 2 (Herbicidal rate of 20% or more and less than 40%) | 1 (Herbicidal rate of 5% or more and less than 20%) | 2 (Herbicidal rate of 20% or more and less than 40%) | 3 (Herbicidal rate of 40% or more and less than 70%) | 5 (Herbicidal rate of 90% or more (almost completely withered)) | 0 (Herbicidal rate of 5% or less (almost no effect)) | 
